Values joined by “and” are separate entries in the source; they are usually repeats but may differ in a detail not shown here. Equal values may be shown once. Read-outs that look alike come from different tables or passages of the source.
Legend:
purified PARP protein = purified PARP protein (Homo sapiens, UniProt P09874); experiment: PARP enzyme inhibition assay; format: biochemical
[1] = 20 nM purified PARP (5 nM for tight-binding inhibitors), 500 μM NAD+, 25° C., several values in one cell = repeat determinations, read-out: Inhibition Constant Ki

purified PARP protein, sequence (P09874 whole entry): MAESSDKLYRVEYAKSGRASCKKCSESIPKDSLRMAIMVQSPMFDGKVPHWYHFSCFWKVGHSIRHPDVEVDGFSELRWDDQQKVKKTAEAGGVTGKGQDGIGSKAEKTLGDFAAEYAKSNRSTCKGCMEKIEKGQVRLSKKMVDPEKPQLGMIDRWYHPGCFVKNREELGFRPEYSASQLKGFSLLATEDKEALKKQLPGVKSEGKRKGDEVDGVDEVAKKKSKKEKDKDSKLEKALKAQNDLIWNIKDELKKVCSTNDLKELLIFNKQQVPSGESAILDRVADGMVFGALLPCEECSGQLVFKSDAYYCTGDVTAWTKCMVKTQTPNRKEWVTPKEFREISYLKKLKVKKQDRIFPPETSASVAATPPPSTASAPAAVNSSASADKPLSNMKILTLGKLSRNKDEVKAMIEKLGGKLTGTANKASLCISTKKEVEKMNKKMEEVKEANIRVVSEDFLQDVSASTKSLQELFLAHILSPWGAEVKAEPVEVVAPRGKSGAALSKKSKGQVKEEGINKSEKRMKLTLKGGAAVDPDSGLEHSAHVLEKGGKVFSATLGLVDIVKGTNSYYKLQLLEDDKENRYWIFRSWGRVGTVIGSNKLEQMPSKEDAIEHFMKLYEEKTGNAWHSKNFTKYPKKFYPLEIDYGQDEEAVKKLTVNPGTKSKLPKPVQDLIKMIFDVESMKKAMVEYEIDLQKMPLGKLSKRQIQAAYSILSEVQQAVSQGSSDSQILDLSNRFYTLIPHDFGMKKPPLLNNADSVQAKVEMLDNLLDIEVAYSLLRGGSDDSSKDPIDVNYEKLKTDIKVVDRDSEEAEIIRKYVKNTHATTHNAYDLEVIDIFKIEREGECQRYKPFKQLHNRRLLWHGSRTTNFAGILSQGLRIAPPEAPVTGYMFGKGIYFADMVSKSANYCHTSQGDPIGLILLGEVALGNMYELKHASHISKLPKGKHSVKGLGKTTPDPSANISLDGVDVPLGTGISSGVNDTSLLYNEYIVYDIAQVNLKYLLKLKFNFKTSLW

melting point	Ki (purified PARP protein; [1])	Ki (purified PARP protein; Inhibition Constant Ki (nM))	Compound
265 °C (dec.)	12.1 nM	–	O=C1NCCn2c(-c3ccnc(Cl)c3)nc3cccc1c32 [Example 15, 1-(2-Chloropyridin-4-yl)-8,9-dihydro-7H-2,7,9a-triaza-benzo[cd]azulen-6-one]
223 to 225 °C	7.2 nM	–	O=C1NCCn2c(-c3cccc(Oc4cccnc4)c3)nc3cccc1c32 [Example 16, 1-[3-(Pyridin-3-yloxy)-phenyl]-8,9-dihydro-7H-2,7,9a-triaza-benzo[cd]azulen-6-one]
173 to 175 °C	68 nM	–	O=C1NCCn2c(-c3ccccn3)cc3cccc1c32 [Example 40, 6-Pyridin-2-yl-3,4-dihydro-2H-[1,4]diazepino[6,7,1-hi]indol-1-one]
223 to 225 °C	10 nM	–	O=C1NCCn2c(-c3cccc(C4OCCO4)c3)nc3cccc1c32 [Example 55, (3-[1,3]Dioxolan-2-yl-phenyl)-8,9-dihydro-7H-2,7,9a-triaza-benzo[cd]azulen-6-one]
92 °C (dec.)	6.2 nM	–	O=C1NCCn2c(-c3cccc(CN4CCCC4)c3)nc3cccc1c32 [Example 60, 1-(3-Pyrrolidin-1-ylmethyl-phenyl)-8,9-dihydro-7H-2,7,9a-triaza-benzo[cd]azulen-6-one]
121 to 122 °C	6.2 nM	–	O=C1NCCn2c(-c3cccc(Oc4cccc(C(F)(F)F)c4)c3)nc3cccc1c32 [Example 61, 1-[3-(3-Trifluoromethyl-phenoxy)-phenyl]-8,9-dihydro-7H-2,7,9a-triaza-benzo[cd]azulen-6-one]
196 to 198 °C	6.2 nM	–	COc1ccc(Oc2cccc(-c3nc4cccc5c4n3CCNC5=O)c2)cc1 [Example 64, 1-[3-(4-Methoxyphenoxy)-phenyl]-8,9-dihydro-7H-2,7,9a-triaza-benzo[cd]azulen-6-one]
237 to 238 °C (dec.)	8.9 nM	–	O=C(c1ccccc1)c1cccc(-c2nc3cccc4c3n2CCNC4=O)c1 [Example 66, 1-(3-Benzoylphenyl)-8,9-dihydro-7H-2,7,9a-triaza-benzo[cd]azulen-6-one]
205 to 208 °C	9.3 nM	–	O=C1NCCn2c(-c3cccc(Cc4ccccc4)c3)nc3cccc1c32 [Example 67, 1-(3-Benzylphenyl)-8,9-dihydro-7H-2,7,9a-triaza-benzo[cd]azulen-6-one]
266 to 268 °C	13 nM	–	CN(C)c1cc(-c2nc3cccc4c3n2CCNC4=O)ccn1 [Example 71, 1-(2-Dimethylamino-pyridin-4-yl)-8,9-dihydro-7H-2,7,9a-triaza-benzo[cd]azulen-6-one]
196 to 198 °C	3.5 nM	–	CNCc1cccc(-c2nc3cc(F)cc4c3n2CCNC4=O)c1 [Example 72, 1-(3-Methylaminomethyl-phenyl)-4-fluoro-8,9-dihydro-7H-2,7,9a-triaza-benzo[cd]azulen-6-one]
259 to 264 °C	5.2 nM	–	O=C1NCCn2c(-c3ccc(Oc4ccccc4)cc3)nc3cccc1c32 [Example 78, 1-(4-Phenoxyphenyl)-8,9-dihydro-7H-2,7,9a-triaza-benzo[cd]azulen-6-one]
219 to 221 °C	11 nM	–	CCOC(OCC)c1ccc(-c2nc3cc(F)cc4c3n2CCNC4=O)cc1 [Example 79, 1-(4-Diethoxymethyl-phenyl)-4-fluoro-8,9-dihydro-7H-2,7,9a-triaza-benzo[cd]azulen-6-one]
192 to 194 °C	12 nM and 13 nM	–	O=Cc1cccc(-c2cc3cccc4c3n2CCNC4=O)c1 [Example 85, 3-(1-Oxo-1,2,3,4-tetrahydro-[1,4]diazepino[6,7,1-hi]indol-6-yl)-benzaldehyde]
128 to 130 °C	6.7 nM and 7 nM	–	CNCc1cccc(-c2cc3cccc4c3n2CCNC4=O)c1 [Example 87, 6-(3-Methylaminomethyl-phenyl)-3,4-dihydro-2H-[1,4]diazepino[6,7,1-hi]indol-1-one]
212 to 214 °C	–	–	O=Cc1ccc(-c2cc3cc(F)cc4c3n2CCNC4=O)cc1 [Example 169, 4-(9-Fluoro-1-oxo-1,2,3,4-tetrahydro-[1,4]diazepino[6,7,1-hi]indol-6-yl)-benzaldehyde]

The remaining lines, values behind:

Compound	melting point	Ki (purified PARP protein; [1])	Ki (purified PARP protein; Inhibition Constant Ki (nM))
O=C1NCCn2c(-c3ccno3)nc3cccc1c32 [Example 13, 1-Isoxazol-5-yl-8,9-dihydro-7H-2,7,9a-triaza-benzo[cd]azulen-6-one]	226 °C (dec.)	10.1 nM	–
CC(C)(C)c1nc2cccc3c2n1CCNC3=O [Example 22, 1-tert-Butyl-8,9-dihydro-7H-2,7,9a-triaza-benzo[cd]azulen-6-one]	246 to 248 °C	13 nM and 14 nM and 15 nM	–
CC(C)Cc1nc2cccc3c2n1CCNC3=O [Example 23, 1-Isobutyl-8,9-dihydro-7H-2,7,9a-triaza-benzo[cd]azulen-6-one]	211 to 212 °C	17.3 nM	–
O=C1NCCn2c(SCc3ccccc3)nc3cccc1c32 [Example 29, 1-Benzylsulfanyl-8,9-dihydro-7H-2,7,9a-triaza-benzo[cd]azulen-6-one]	189 to 191 °C	24 nM	–
COC(OC)c1cccc(-c2nc3cccc4c3n2CCNC4=O)c1 [Example 31a, 1-(3-Dimethoxymethyl-phenyl)-8,9-dihydro-7H-2,7,9a-triaza-benzo[cd]azulen-6-one]	182 to 185 °C	22 nM	–
O=C1NCCn2c(-c3cccc(CO)c3)nc3cccc1c32 [Example 32a, 1-(3-Hydroxymethyl-phenyl)-8,9-dihydro-7H-2,7,9a-triaza-benzo[cd]azulen-6-one]	275 to 278 °C	8.8 nM	–
COc1ccc(-c2cc3cccc4c3n2CCNC4=O)cc1 [Example 35, 6-(4-Methoxyphenyl)-3,4-dihydro-2H-[1,4]diazepino[6,7,1-hi]indol-1-one]	193 to 195 °C	8.2 nM	–
O=C1NCCn2c(CCc3ccccc3)cc3cccc1c32 [Example 36, 6-Phenethyl-3,4-dihydro-2H-[-1,4]diazepino[6,7,1-hi]indol-1-one]	133 to 135 °C	–	27 nM
CCOC(OCC)c1ccc(-c2nc3cccc4c3n2CCNC4=O)cc1 [Example 56, 1-(4-Diethoxymethyl-phenyl)-8,9-dihydro-7H-2,7,9a-triaza-benzo[cd]azulen-6-one]	213 to 215 °C	32 nM	–
O=C1NCCn2c(-c3cccc(Oc4ccc(Cl)cc4)c3)nc3cccc1c32 [Example 62, 1-[3-(4-Chlorophenoxy)-phenyl]-8,9-dihydro-7H-2,7,9a-triaza-benzo[cd]azulen-6-one]	211 to 212 °C	6.1 nM	–
O=C1NCCn2c(-c3cccc(Oc4ccc(Cl)c(Cl)c4)c3)nc3cccc1c32 [Example 63, 1-[3-(3,4-Dichlorophenoxy)-phenyl]-8,9-dihydro-7H-2,7,9a-triaza-benzo[cd]azulen-6-one]	252 to 254 °C (dec.)	13 nM	–
O=C1NCCn2c(-c3cccc(Oc4cc(Cl)cc(Cl)c4)c3)nc3cccc1c32 [Example 65, 1-[3-(3,5-Dichlorophenoxy)-phenyl]-8,9-dihydro-7H-2,7,9a-triaza-benzo[cd]azulen-6-one]	258 to 259 °C (dec.)	11 nM	–
O=C1NCCn2c(-c3cccc(C4OCCO4)c3)nc3cc(F)cc1c32 [Example 68, 1-(3-[1,3]Dioxolan-2-yl-phenyl)-4-fluoro-8,9-dihydro-7H-2,7,9a-triaza-benzo[cd]azulen-6-one]	262 to 264 °C (dec.)	5.8 nM	–
CN(C)Cc1cccc(-c2nc3cc(F)cc4c3n2CCNC4=O)c1 [Example 70, 1-(3-Dimethylaminomethyl-phenyl)-4-fluoro-8,9-dihydro-7H-2,7,9a-triaza-benzo[cd]azulen-6-one]	215 to 217 °C (dec.)	4.4 nM	–
N#Cc1cccc(-c2nc3cccc4c3n2CCNC4=O)c1 [Example 73, 3-(6-Oxo-6,7,8,9-tetrahydro-2,7,9a-triaza-benzo[cd]azulen-1-yl)-benzonitrile]	283 to 284 °C (dec.)	10 nM	–
CCOC(=O)c1nc2cccc3c2n1CCNC3=O [Example 74, 6-Oxo-6,7,8,9-tetrahydro-2,7,9a-triaza-benzo[cd]azulen-1-carboxylic Acid Ethyl Ester]	237 to 239 °C (dec.)	33 nM	–
O=C1NCCn2c(-c3ncc[nH]3)nc3cccc1c32 [Example 80, 1-(1H-Imidazol-2-yl)-8,9-dihydro-7H-2.7,9a-triaza-benzo[cd]azulen-6-one]	227 to 228 °C (dec.)	9 nM	–
CNCc1ccc(-c2cc3cccc4c3n2CCNC4=O)cc1 [Example 83, 6-(4-Methylaminomethyl-phenyl)-3,4-dihydro-2H-[1,4]diazepino[6,7,1-hi]indol-1-one]	178 to 180 °C	–	–
O=C1NCCn2c(-c3ccc(CN4CCCC4)cc3)cc3cccc1c32 [Example 84, 6-(4-Pyrrolidin-1-ylmethyl-phenyl)-3,4-dihydro-2H-[1,4]diazepino[6,7,1-hi]indol-1-one]	146 to 148 °C	6.5 nM and 7.1 nM	–
O=C1NCCn2c(-c3cccc(CN4CCCC4)c3)cc3cccc1c32 [Example 88, 6-(3-Pyrrolidin-1-ylmethyl-phenyl)-3,4-dihydro-2H-[1,4]diazepino[6,7,1-hi]indol-1-one]	158 to 160 °C	12 nM and 13 nM	–
N#Cc1c(-c2ccc(F)cc2)n2c3c(cccc13)C(=O)NCC2 [Example 91, 6-(4-Fluoro-phenyl)-1-oxo-1,2,3,4-tetrahydro-[1,4]diazepino[6,7,1-hi]indole-7-carbonitrile]	248 to 250 °C	54 nM	–
NC(=O)c1c(-c2ccc(F)cc2)n2c3c(cccc13)C(=O)NCC2 [Example 92, 6-(4-Fluoro-phenyl)-1-oxo-1,2,3,4-tetrahydro-[1,4]diazepino[6,7,1-hi]indole-7-carboxylic Acid Amide]	287 to 289 °C	200 nM	–
